# Reference: US20120294879A1, “CONSENSUS SEQUENCE FOR INFLUENZA A VIRUS” (priority 2009, published 2012)
# Key:
# Assay type in all cases: cell-based
# [1] = system: splenocytes of HLA-B7 (B*0702) transgenic mice; set-up: key to B7: average IFN-γ spots forming cells per million splenocytes: — represents no positive ELISpot response
# [2] = system: splenocytes of HLA-DR4 (DRB1*0401) transgenic mice; set-up: key: — represents no positive ELISpot response
# [3] = system: splenocytes of HLA-DR2 (DRB1*1501) transgenic mice; set-up: key to DR2: average IFN-γ spots forming cells per million splenocytes: — represents no positive ELISpot response
# [4] = system: splenocytes of HLA-A24 (A*2402) transgenic mice; set-up: key to A24: average IFN-γ spots forming cells per million splenocytes: — represents no positive ELISpot response
# [5] = system: splenocytes of HLA-DR3 (DRB1*0301) transgenic mice; set-up: key to DR3: average IFN-γ spots forming cells per million splenocytes: — represents no positive ELISpot response
Sequence,B7: average IFN-γ spots forming cells per million splenocytes [1],DR4: average IFN-γ spots forming cells per million splenocytes [2],DR2: average IFN-γ spots forming cells per million splenocytes [3],A24: average IFN-γ spots forming cells per million splenocytes [4],DR3: average IFN-γ spots forming cells per million splenocytes [5],DR3: lowest concentration of peptide giving positive ELISpot response in peptide titration [5],DR2: lowest concentration of peptide giving positive ELISpot response in peptide titration [3],A24: lowest concentration of peptide giving positive ELISpot response in peptide titration [4]
APIMFSNKMARLGKGYM,—,—,—,—,175 ± 0(0.1) IFN-γ spots forming cells per million splenocytes,175 ± 0(0.1) μg/ml,,
DKLTQGRQTYDWTLNRN,—,—,—,—,142 ± 6(0.1) IFN-γ spots forming cells per million splenocytes,142 ± 6(0.1) μg/ml,,
DQSLIIAARNIVRRAAV,—,—,—,—,169 ± 12(0.1) IFN-γ spots forming cells per million splenocytes,169 ± 12(0.1) μg/ml,,
DYRYTYRCHRGDTQIQT,—,76 ± 2(0.1) IFN-γ spots forming cells per million splenocytes,109 ± 13(1) IFN-γ spots forming cells per million splenocytes,—,166 ± 22(0.1) IFN-γ spots forming cells per million splenocytes,166 ± 22(0.1) μg/ml,109 ± 13(1) μg/ml,
ESADMSIGVTVIKNNMI,—,—,75 ± 10(0.1) IFN-γ spots forming cells per million splenocytes,—,—,,75 ± 10(0.1) μg/ml,
ESKSMKLRTQIPAEMLA,—,—,84 ± 20(0.1) IFN-γ spots forming cells per million splenocytes,—,—,,84 ± 20(0.1) μg/ml,
EVHIYYLEKANKIKSEK,—,37 ± 11(0.1) IFN-γ spots forming cells per million splenocytes,—,—,—,,,
EYDAVATTHSWVPKRNR,—,59 ± 2(0.1) IFN-γ spots forming cells per million splenocytes,—,—,—,,,
FFYRYGFVANFSMELPS,—,—,—,210 ± 25 IFN-γ spots forming cells per million splenocytes,—,,,(0.1) μg/ml
GPAKNMEYDAVATTHSW,—,41 ± 9(0.1) IFN-γ spots forming cells per million splenocytes,—,—,142 ± 45(0.1) IFN-γ spots forming cells per million splenocytes,142 ± 45(0.1) μg/ml,,
GRFYIQMCTELKLNDYE,—,—,—,—,66 ± 7(1) IFN-γ spots forming cells per million splenocytes,66 ± 7(1) μg/ml,,
IGVTVIKNNMINNDLGP,—,—,159 ± 53(0.1) IFN-γ spots forming cells per million splenocytes,—,—,,159 ± 53(0.1) μg/ml,
KHGTFGPVHFRNQVKIR,—,316 ± 20(0.1) IFN-γ spots forming cells per million splenocytes,—,—,—,,,
KLLGINMSKKKSYINRT,—,—,—,—,116 ± 10(0.1) IFN-γ spots forming cells per million splenocytes,116 ± 10(0.1) μg/ml,,
KRSYEQMETDGERQNAT,—,52 ± 29(0.1) IFN-γ spots forming cells per million splenocytes,—,—,—,,,
KWVRELVLYDKEEIRRI,—,—,—,—,614 ± 21(0.1) IFN-γ spots forming cells per million splenocytes,614 ± 21(0.1) μg/ml,,
KYPITADKRITEMIPER,—,—,—,—,499 ± 4(0.1) IFN-γ spots forming cells per million splenocytes,499 ± 4(0.1) μg/ml,,
LASTTAKAMEQMAGSSE,—,115 ± 21(1) IFN-γ spots forming cells per million splenocytes,—,—,—,,,
LEKANKIKSEKTHIHIF,—,41 ± 10(0.1) IFN-γ spots forming cells per million splenocytes,—,—,—,,,
LLRHFQKDAKVLFLNWG,—,—,—,—,444 ± 14(0.1) IFN-γ spots forming cells per million splenocytes,444 ± 14(0.1) μg/ml,,
